This note sets out measurements from US20260053932A1, “COMPOUNDS AND METHODS FOR THE TARGETED DEGRADATION OF ANDROGEN RECEPTOR AND ASSOCIATED METHODS OF USE” (Arvinas Operations, Inc., priority 2020, published 2026).

Each structure is given as a SMILES string.

One assay relates to androgen receptor (AR) in LNCaP and/or VCaP cells. In words: Androgen Receptor ELISA assay (AR degradation). It counts as cell-based. To be noted: LNCaP and/or VCaP cells; 5 hours incubation; media with R1881; read-out: DC50 Code* (degradation of AR ELISA). Summed up:
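VCaP cells grown ≥3 days, then treated 5 h with compound in media containing 1 nM R1881 (10× stock). Cells lysed and AR quantified by sandwich ELISA (mouse AR detection Ab, HRP anti-mouse, TMB). DC50 and Dmax derived from AR degradation.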
(In general: An ELISA detects its analyte on a solid surface through an enzyme-linked reagent.)
Consider `COc1cc(O[C@H]2C[C@H](N(CC3CCN(c4ncc(C(=O)NC5CC6CN(Cc7cc(C)c(C#N)c(C)c7)CC6C5)cn4)CC3)C(C)C)C2)cc2c1C(=O)N(C1CCC(=O)NC1=O)C2=O` (stereo partly shown) [Compound 3, N-(2-(4-cyano-3,5-dimethylbenzyl)octahydrocyclopenta [c]pyrrol-5-yl)-2-(4-((((1r,3r)-3-((2-(2,6-dioxopiperidin-3-yl)-7-methoxy-1,3-dioxoisoindolin-5-yl)oxy)cyclobutyl) (isopropyl)amino)methyl)piperidin-1-yl)pyrimidine-5-carboxamide], for which the DC50 (usually the concentration giving 50% degradation) was above 100 nM. For the molecule `N#Cc1ccc(O[C@H]2CC[C@H](NC(=O)c3cnc(N4CCC(CN(C5CCOCC5)[C@H]5C[C@H](Oc6ccc7c(c6)C(=O)N(C6CCC(=O)NC6=O)C7=O)C5)CC4)cn3)CC2)cc1Cl` (stereo partly shown) [Compound 30, N-((1r,4r)-4-(3-chloro-4-cyanophenoxy)cyclohexyl)-5-(4-((((1r,3r)-3-((2-(2,6-dioxopiperidin-3-yl)-1,3-dioxoisoindolin-5-yl)oxy)cyclobutyl) (tetrahydro-2H-pyran-4-yl)amino)methyl)piperidin-1-yl)pyrazine-2-carboxamide], the DC50 was below 1 nM. For `CC(C)N(CC1CCN(c2cnc(C(=O)N[C@H]3CC[C@H](Oc4ccc(C#N)c(Cl)c4)CC3)cn2)CC1)[C@H]1CC[C@H](Oc2ccc3c(c2)C(=O)N(C2CCC(=O)NC2=O)C3=O)CC1` (stereo partly shown) [Compound 35, N-((1r,4r)-4-(3-chloro-4-cyanophenoxy)cyclohexyl)-5-(4-((((1r,4r)-4-((2-(2,6-dioxopiperidin-3-yl)-1,3-dioxoisoindolin-5-yl)oxy)cyclohexyl) (isopropyl)amino)methyl)piperidin-1-yl)pyrazine-2-carboxamide], the DC50 was below 1 nM.

The assay is the same for the next values; noted with them: degradation of AR ELISA in LNCaP and/or VCaP cells; Table 2C; read-out: DC50 Code*.
For `COCCN(CC1CCN(c2cnc(C(=O)N[C@H]3C(C)(C)[C@H](Oc4cc(C)c(C#N)c(C)c4)C3(C)C)cn2)CC1)[C@H]1C[C@H](Oc2ccc3c(c2)C(=O)N(C2CCC(=O)NC2=O)C3)C1` (mixture of isomers) [compound 223, rac-N-((1r,3r)-3-(4-cyano-3,5-dimethylphenoxy)-2,2,4,4-tetramethylcyclobutyl)-5-(4-((((1r,3r)-3-((2-(2,6-dioxopiperidin-3-yl)-3-oxoisoindolin-5-yl)oxy)cyclobutyl)(2-methoxyethyl)amino)methyl)piperidin-1-yl)pyrazine-2-carboxamide], the DC50 was below 1 nM. On the same count and under the same terms, then `CC(C)N(CC1CCN(c2ncc(C(=O)N[C@H]3C(C)(C)[C@H](Oc4ccc(C#N)c(Cl)c4)C3(C)C)cn2)CC1)[C@H]1C[C@H](Oc2ccc3c(c2)CN(C2CCC(=O)NC2=O)C3=O)C1` (stereo partly shown) [compound 80, N-((1r,3r)-3-(3-chloro-4-cyanophenoxy)-2,2,4,4-tetramethylcyclobutyl)-2-(4-((((1r,3r)-3-((2-(2,6-dioxopiperidin-3-yl)-1-oxoisoindolin-5-yl)oxy)cyclobutyl) (isopropyl)amino)methyl)piperidin-1-yl)pyrimidine-5-carboxamide], with below 1 nM; and `COCCN(CC1CCN(c2ccc(C(=O)NC3C(C)(C)C(Oc4ccc(C#N)c(OC)c4)C3(C)C)cc2)CC1)C1CC(Oc2ccc3c(c2)C(=O)N([C@@H]2CCC(=O)NC2=O)C3=O)C1` (stereo partly shown) [compound 101, N-((1r,3r)-3-(4-cyano-3-methoxyphenoxy)-2,2,4,4-tetramethylcyclobutyl)-4-(4-((((1r,3r)-3-((2-(2,6-dioxopiperidin-3-yl)-1,3-dioxoisoindolin-5-yl)oxy)cyclobutyl)(2-methoxyethyl)amino)methyl)piperidin-1-yl)benzamide], with below 1 nM. As to `Cc1cc(O[C@H]2C(C)(C)[C@H](NC(=O)c3ccc(CN4CCOC[C@H]4CN4CCN(c5ccc6c(c5)C(=O)N(C5CCC(=O)NC5=O)C6=O)CC4)cc3)C2(C)C)cc(C)c1C#N` (stereo partly drawn) [compound 183, N-((1r,3R)-3-(4-cyano-3,5-dimethylphenoxy)-2,2,4,4-tetramethylcyclobutyl)-4-(((3R)-3-((4-(2-(2,6-dioxopiperidin-3-yl)-1,3-dioxoisoindolin-5-yl)piperazin-1-yl)methyl)morpholino)methyl)benzamide], the DC50 is below 1 nM. Regarding `COCCN(CC1CCN(c2ccc(C(=O)N[C@H]3C(C)(C)[C@H](Oc4ccc(C#N)c(OC)c4)C3(C)C)cc2)CC1)[C@H]1C[C@H](Oc2cc(OC)c3c(c2)C(=O)N(C2CCC(=O)NC2=O)C3=O)C1` (stereo partly shown) [compound 94, N-((1r,3r)-3-(4-cyano-3-methoxyphenoxy)-2,2,4,4-tetramethylcyclobutyl)-4-(4-((((1r,3r)-3-((2-(2,6-dioxopiperidin-3-yl)-7-methoxy-1,3-dioxoisoindolin-5-yl)oxy)cyclobutyl)(2-methoxyethyl)amino)methyl)piperidin-1-yl)benzamide], the DC50 was below 1 nM.

`CC(C)N(CC1CCN(c2cnc(C(=O)N[C@H]3C(C)(C)[C@H](Oc4ccc(C#N)c(Cl)c4)C3(C)C)cn2)CC1)[C@H]1C[C@H](Oc2cccc3c2CN(C2CCC(=O)NC2=O)C3=O)C1` (mixture of isomers) [compound 208, rac-N-((1r,3r)-3-(3-chloro-4-cyanophenoxy)-2,2,4,4-tetramethylcyclobutyl)-5-(4-((((1r,3r)-3-((2-(2,6-dioxopiperidin-3-yl)-1-oxoisoindolin-4-yl)oxy)cyclobutyl) (isopropyl)amino)methyl)piperidin-1-yl)pyrazine-2-carboxamide]: the DC50 is below 1 nM. With `CCOc1cc(O[C@H]2C[C@H](N(CC3CCN(c4cnc(C(=O)N[C@H]5C(C)(C)[C@H](Oc6cc(C)c(C#N)c(C)c6)C5(C)C)cn4)CC3)C(C)C)C2)cc2c1C(=O)N(C1CCC(=O)NC1=O)C2=O` (mixture of isomers) [compound 238, rac-N-((1r,3r)-3-(4-cyano-3,5-dimethylphenoxy)-2,2,4,4-tetramethylcyclobutyl)-5-(4-((((1r,3r)-3-((2-(2,6-dioxopiperidin-3-yl)-7-ethoxy-1,3-dioxoisoindolin-5-yl)oxy)cyclobutyl) (isopropyl)amino)methyl)piperidin-1-yl)pyrazine-2-carboxamide], the DC50 fell in the range of 1 to 10 nM. `COc1cc(O[C@H]2C(C)(C)[C@H](NC(=O)c3cnc(N4CC5(CC(CN(C(C)C)[C@H]6C[C@H](Oc7ccc8c(c7)C(=O)N(C7CCC(=O)NC7=O)C8=O)C6)C5)C4)cn3)C2(C)C)ccc1C#N` (stereo partly shown) [compound 122, N-((1r,3r)-3-(4-cyano-3-methoxyphenoxy)-2,2,4,4-tetramethylcyclobutyl)-5-(6-((((1r,3r)-3-((2-(2,6-dioxopiperidin-3-yl)-1,3-dioxoisoindolin-5-yl)oxy)cyclobutyl) (isopropyl)amino)methyl)-2-azaspiro[3.3]heptan-2-yl)pyrazine-2-carboxamide]: the DC50 is below 1 nM.

Staying with this assay, now noted: degradation of AR ELISA in LNCaP and/or VCaP cells; read-out: DC50 Code*.
As for `COc1cc(O[C@H]2C(C)(C)[C@H](NC(=O)c3ccc(N4CCC(CN5CCOCCCCOc6cc(cc7c6C(=O)N(C6CCC(=O)NC6=O)C7=O)O[C@H]6C[C@H]5C6)CC4)nn3)C2(C)C)ccc1C#N` (stereo partly shown) [compound 244], the DC50 was in the range of 1 to 10 nM.

Regarding `COc1cc(O[C@H]2C(C)(C)[C@H](NC(=O)c3cnc(N4CCC(CN(CC[S+]([O-])CC5(C)COC5)[C@H]5C[C@H](Oc6ccc7c(c6)C(=O)N(C6CCC(=O)NC6=O)C7=O)C5)CC4)cn3)C2(C)C)ccc1C#N` (mixture of isomers) [compound 243, rac-N-((1r,3r)-3-(4-cyano-3-methoxyphenoxy)-2,2,4,4-tetramethylcyclobutyl)-5-(4-((((1r,3r)-3-((2-(2,6-dioxopiperidin-3-yl)-1,3-dioxoisoindolin-5-yl)oxy)cyclobutyl)(2-(((3-methyloxetan-3-yl)methyl)sulfinyl)ethyl)amino)methyl)piperidin-1-yl)pyrazine-2-carboxamide], the DC50 lay in the range of 1 to 10 nM.
